Here are results for 31 molecules from patent US8710062B2, “Piperazinedione compounds” (Taipei Medical University, priority 2011, dated 2014).

Data set [1] relates to 60 Human Cancer Cell Lines (NCI-60). Conditions: data obtained from the NCI/DTP database (asterisk); cited from earlier work.

SMILES strings stand for the structures. Structures can show the parent of a compound that is named as a salt.

`O=c1[nH]/c(=C\c2ccc(OCc3cccnc3)cn2)c(=O)[nH]/c1=C\c1ccccc1` (as salt: sulfonic acid salt) [Compound 3, 3-benzylidene-6-((5-(pyridin-3-ylmethoxy)pyridin-2-yl)methylene)piperazine-2,5-dione methanesulfonic acid salt] came in with a melting point of 228 to 230 °C.
On to `O=c1[nH]/c(=C\c2ccc(OCc3ccccn3)cn2)c(=O)[nH]/c1=C\c1ccccc1` (as salt: sulfonic acid salt) [Compound 4, 3-benzylidene-6-((5-(pyridin-2-ylmethoxy)pyridin-2-yl)methylene)piperazine-2,5-dione methanesulfonic acid salt], for which the melting point is 266 to 267 °C.
`NC(C(=O)Oc1ccc(/C=c2\[nH]c(=O)/c(=C/c3ccccc3)[nH]c2=O)nc1)c1ccccc1` (stereo not shown) (as salt: trifluoroacetate) [Compound 9, 2-(6-((Z)—((Z)-5-benzylidene-3,6-dioxopiperazin-2-ylidene)methyl)py-ridin-3-yloxy)-2-oxo-1-phenylethanaminium 2,2,2-trifluoroacetate] showed a melting point of 280 °C.
On the same count and under the same terms, as for `NC(Cc1ccccc1)C(=O)Oc1ccc(/C=c2\[nH]c(=O)/c(=C/c3ccccc3)[nH]c2=O)nc1` (stereo not shown) (as salt: trifluoroacetate) [Compound 11, 1-(6-((Z)—((Z)-5-benzylidene-3,6-dioxopiperazin-2-ylidene)methyl)-pyridin-3-yloxy)-1-oxo-3-phenylpropan-2-aminium 2,2,2-trifluoroacetate], the figure is 285 to 286 °C.
The same measure, in the same setting: as for `NC(Cc1ccc(O)cc1)C(=O)Oc1ccc(/C=c2\[nH]c(=O)/c(=C/c3ccccc3)[nH]c2=O)nc1` (stereo not shown) (as salt: trifluoroacetate) [Compound 12, 1-(6-((Z)—((Z)-5-benzylidene-3,6-dioxopiperazin-2-ylidene)methyl)pyridin-3-yloxy)-3-(4-hydroxyphenyl)-1-oxopropan-2-aminium 2,2,2-trifluoroacetate], the figure is 312 to 314 °C.
Regarding `Nc1nc2[nH]cc(CCc3ccc(C(=O)N[C@@H](CCC(=O)O)C(=O)O)cc3)c2c(=O)[nH]1` [Alimta], the pIC50 in data set [1] is given as 4.97.
As to `O=c1[nH]cc(F)c(=O)[nH]1` [Compound 5-FU, 5-FU], the pIC50 in data set [1] was 4.76.
With `CN1CCN(C(=O)Oc2ccc(/C=c3\[nH]c(=O)/c(=C/c4ccccc4)[nH]c3=O)nc2)CC1` [Compound 6, 6-((Z)—((Z)-5-benzylidene-3,6-dioxopiperazin-2-ylidene)methyl)pyridin-3-yl-4-methylpiperazine-1-carboxylate], the melting point fell in the range of 234 to 235 °C.
The molecule `CC(C)(C)OC(=O)NC(Cc1ccccc1)C(=O)Oc1ccc(/C=c2\[nH]c(=O)/c(=C/c3ccccc3)[nH]c2=O)nc1` (stereo not shown) [Compound 10, 6-((Z)—((Z)-5-benzylidene-3,6-dioxopiperazin-2-ylidene)methyl)pyridin-3-yl 2-(tert-butoxycarbonylamino)-3-phenylpropanoate] gave a melting point of 188 °C.
The molecule `CC(C)(C)OC(=O)NC(Cc1ccc(OC(C)(C)C)cc1)C(=O)Oc1ccc(/C=c2\[nH]c(=O)/c(=C/c3ccccc3)[nH]c2=O)nc1` (stereo not shown) [Compound 13, 6-((Z)—((Z)-5-benzylidene-3,6-dioxopiperazin-2-ylidene)methyl)pyridin-3-yl-2-(tert-butoxycarbonylamino)-3-(4-tert-butoxyphenyl)propanoate] displayed a melting point of 210 to 212 °C.
Still for that read-out and setting: the same measure for `O=c1[nH]/c(=C\c2ccc(OCc3ccncc3)cn2)c(=O)n(Cc2ccncc2)/c1=C\c1ccccc1` [Compound 14, (3Z,6Z)-6-benzylidene-3-((5-(pyridin-4-ylmethoxy)pyridin-2-yl)meth-ylene)-1-(pyridin-4-ylmethyl)piperazine-2,5-dione]: 284 °C (dec.); for `CN(C)CCCOc1cccc(/C=c2\[nH]c(=O)/c(=C/c3ccc(OCc4ccccc4)cn3)[nH]c2=O)c1` [Compound 17, 3-((5-(benzyloxy)pyridin-2-yl)methylene)-6-(3-(3-(dimethylamino)propoxy)benzylidene)piperazine-2,5-dione]: 286 °C (dec.).
For `O=c1[nH]/c(=C\c2ccc(OCCO)cn2)c(=O)n(CCO)/c1=C\c1ccccc1` [Compound 18, 6-benzylidene-3-((5-(2-hydroxyethoxy)pyridin-2-yl)methylene)-1-(2-hydroxyethyl)piperazine-2,5-dione], the melting point was 326 °C (dec.).
Still for that read-out and setting: the same measure for `CC(=O)N1CC(=O)N/C(=C\c2ccc3ccccc3n2)C1=O` [Compound 19, 1-acetyl-3-(quinolin-2-ylmethylene)piperazine-2,5-dione]: 262 to 263 °C; for `O=c1[nH]/c(=C\c2ccc3ccccc3n2)c(=O)[nH]/c1=C\c1ccc2ccccc2n1` [Compound 20, 3,6-bis(quinolin-2-ylmethylene)piperazine-2,5-dione]: 374 to 375 °C.
For the molecule `O=c1[nH]/c(=C\c2ccc3ccccc3n2)c(=O)[nH]/c1=C\c1cccnc1` [Compound 21, 3-(pyridin-3-ylmethylene)-6-(quinolin-2-ylmethylene)piperazine-2,5-dione], the melting point was 305 to 306 °C.
Same read-out and setting: the same measure for `O=c1[nH]/c(=C\c2ccc3ccccc3n2)c(=O)[nH]/c1=C\c1ccc(F)cc1` [Compound 22, 3-(4-fluorobenzylidene)-6-(quinolin-2-ylmethylene)piperazine-2,5-dione]: 319 to 320 °C; for `O=c1[nH]/c(=C\c2ccc3ccccc3n2)c(=O)[nH]/c1=C\c1ccc(Cl)cc1` [Compound 23, 3-(4-chlorobenzylidene)-6-(quinolin-2-ylmethylene)piperazine-2,5-dione]: 348 to 349 °C.
For `O=c1[nH]/c(=C\c2cccs2)c(=O)[nH]/c1=C\c1ccc2ccccc2n1` [Compound 24, 3-(quinolin-2-ylmethylene)-6-(thiophen-2-ylmethylene)piperazine-2,5-dione], the melting point was in the range of 288 to 289 °C.
With `O=c1[nH]/c(=C\c2ccnc3ccccc23)c(=O)[nH]/c1=C\c1ccnc2ccccc12` [Compound 26, 3,6-bis(quinolin-4-ylmethylene)piperazine-2,5-dione], the melting point lay in the range of 374 to 375 °C.
Regarding `CC(=O)N1CC(=O)N/C(=C\c2cnc3ccccc3c2)C1=O` [Compound 27, 1-acetyl-3-(quinolin-3-ylmethylene)piperazine-2,5-dione], the melting point fell in the range of 261 to 262 °C.
Consider `Nc1ccn([C@@H]2O[C@H](CO)[C@@H](O)C2(F)F)c(=O)n1` [Gemcitabine], for which, in data set [1], the pIC50 is on record as 6.82.
In the case of `COc1cc2ncnc(Nc3ccc(F)c(Cl)c3)c2cc1OCCCN1CCOCC1` [Irressa], the pIC50 in data set [1] is reported as 5.49.
Regarding `CN(Cc1cnc2nc(N)nc(N)c2n1)c1ccc(C(=O)N[C@@H](CCC(=O)O)C(=O)O)cc1` [MTX], in data set [1], the pIC50 is on record as 6.95.
Consider `CNC(=O)c1cc(Oc2ccc(NC(=O)Nc3ccc(Cl)c(C(F)(F)F)c3)cc2)ccn1` [Mexavar], for which the pIC50 in data set [1] is reported as 5.73.
For `CCN(CC)CCNC(=O)c1c(C)[nH]c(/C=C2\C(=O)Nc3ccc(F)cc32)c1C` [Sutent], in data set [1], the negative-log IC50 (pIC50) is recorded as 5.71.
Consider `C#Cc1cccc(Nc2ncnc3cc(OCCOC)c(OCCOC)cc23)c1` [Tarceva], for which the negative-log IC50 (pIC50) in data set [1] is given as 5.26.
Consider `CC(=O)O[C@@]12CO[C@@H]1C[C@H](O)[C@@]1(C)C(=O)[C@H](O)C3=C(C)[C@@H](OC(=O)[C@H](O)[C@@H](NC(=O)OC(C)(C)C)c4ccccc4)C[C@@](O)([C@@H](OC(=O)c4ccccc4)[C@H]21)C3(C)C` [docetxel], for which the pIC50 in data set [1] is on record as 7.66.
Regarding `O=C1[O][Pt]2([NH][C@@H]3CCCC[C@H]3[NH]2)[O]C1=O` [eloxatin], the pIC50 in data set [1] is listed as 5.65.
`CCc1c2c(nc3ccc(OC(=O)N4CCC(N5CCCCC5)CC4)cc13)-c1cc3c(c(=O)n1C2)COC(=O)[C@]3(O)CC` [irinotecan]: the negative logarithm of the IC50 (pIC50) in data set [1] was 4.85.
Consider `CC(=O)O[C@H]1C(=O)[C@@]2(C)[C@H]([C@H](OC(=O)c3ccccc3)[C@]3(O)C[C@H](OC(=O)[C@H](O)[C@@H](NC(=O)c4ccccc4)c4ccccc4)C(C)=C1C3(C)C)[C@]1(OC(C)=O)CO[C@@H]1C[C@@H]2O` [taxol], for which the pIC50 in data set [1] is recorded as 7.84.

As usually defined, the melting point is the temperature of the solid-liquid transition. As a reminder, the pIC50 is the negative decadic logarithm of the IC50, by convention in mol/L.
